According to patent US20070238765A1, “Heterocyclic GABAA subtype selective receptor modulators” (Roche Palo Alto LLC, priority 2006, published 2007):
Where a name gives a salt, the structure may show the parent alone.

How the values were obtained:
GABAA α1β2γ2 = molecular target: T1, GABAA α1β2γ2 (Homo sapiens, UniProt P14867+P18507+P47870); test: 35S-TBPS binding assay, HEK293 membranes with GABAA α1β2γ2 construct; details: 35S-TBPS 5 nM, GABA 1 μM, 2 hours at room temperature, read-out: α1β2γ2 (35S-TBPS binding, pIC50) (converted)
T1 construct: expressed in transfected cells; host or cells: HEK293
T1 sequence (P14867 28-456): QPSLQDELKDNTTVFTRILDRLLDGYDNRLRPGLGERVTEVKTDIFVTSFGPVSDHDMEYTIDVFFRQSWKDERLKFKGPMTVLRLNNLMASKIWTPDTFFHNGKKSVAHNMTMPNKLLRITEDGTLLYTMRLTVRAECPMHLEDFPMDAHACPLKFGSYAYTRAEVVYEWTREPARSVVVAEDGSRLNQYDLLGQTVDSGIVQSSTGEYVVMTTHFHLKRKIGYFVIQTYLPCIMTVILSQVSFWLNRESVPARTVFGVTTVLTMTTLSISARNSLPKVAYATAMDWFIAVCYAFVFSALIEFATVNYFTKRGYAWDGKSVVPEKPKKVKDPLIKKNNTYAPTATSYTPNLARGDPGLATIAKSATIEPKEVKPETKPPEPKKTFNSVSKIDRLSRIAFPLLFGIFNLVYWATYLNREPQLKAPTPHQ
T1 sequence (P47870 25-512 limits assumed): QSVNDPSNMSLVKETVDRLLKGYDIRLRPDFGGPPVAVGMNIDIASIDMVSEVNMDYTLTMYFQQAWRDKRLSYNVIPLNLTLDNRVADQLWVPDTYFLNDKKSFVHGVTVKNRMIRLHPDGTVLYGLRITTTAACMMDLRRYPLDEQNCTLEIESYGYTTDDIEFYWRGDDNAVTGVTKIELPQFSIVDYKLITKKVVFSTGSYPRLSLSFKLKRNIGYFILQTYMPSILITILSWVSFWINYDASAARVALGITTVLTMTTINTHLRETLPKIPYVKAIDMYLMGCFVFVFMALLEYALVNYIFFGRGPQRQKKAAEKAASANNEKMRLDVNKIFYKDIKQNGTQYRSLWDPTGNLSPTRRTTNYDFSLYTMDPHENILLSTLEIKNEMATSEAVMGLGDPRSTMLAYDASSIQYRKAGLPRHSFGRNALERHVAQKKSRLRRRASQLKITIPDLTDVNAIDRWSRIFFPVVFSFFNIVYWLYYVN
T1 sequence (P18507 40-475): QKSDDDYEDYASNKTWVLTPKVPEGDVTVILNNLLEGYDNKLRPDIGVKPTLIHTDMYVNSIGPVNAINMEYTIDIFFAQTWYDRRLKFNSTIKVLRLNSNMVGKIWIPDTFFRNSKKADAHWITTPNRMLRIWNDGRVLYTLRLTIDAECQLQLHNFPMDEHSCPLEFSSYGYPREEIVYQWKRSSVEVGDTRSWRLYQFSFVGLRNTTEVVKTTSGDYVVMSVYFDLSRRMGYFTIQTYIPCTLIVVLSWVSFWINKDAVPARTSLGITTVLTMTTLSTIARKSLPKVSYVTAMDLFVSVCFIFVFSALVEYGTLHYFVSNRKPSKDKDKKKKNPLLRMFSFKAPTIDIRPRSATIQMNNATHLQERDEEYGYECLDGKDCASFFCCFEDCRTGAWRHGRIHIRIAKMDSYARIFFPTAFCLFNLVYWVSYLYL
Description: (§1) The binding assay is based on the assay reported by K. Gee et al., Eur. J. Pharmacol. 1987, 136, 419-423.
(§2) Homogenate preparation: Membrane preparations of HEK293 cells containing either GABAA α1β2γ2 or GABAA α2β3γ2 constructs were performed according to a modified procedure previously described by Gee et al. (supra). Whole HEK 293 cells in D-PBS (calcium/magnesium free) buffer adjusted to pH 7.4 were centrifuged at 7,280×g for 20 m. After discarding the supernatant, the pellet was resuspended in the buffer and centrifuged at 1,820×g for 10 m. Afterwards, the supernatant was discarded and the pellet resuspended in ice-cold preparation buffer (50 mM Tris HCl pH 7.4, 4° C. and 150 mM KCl), homogenized for 30 sec using a Brinkmann Polytron PT3000 (setting 6) and centrifuged at 48,000×g for 30 m at 4° C. The centrifugation and homogenization procedure was repeated two more times for a total of 3 times before resuspending the membranes at a final protein concentration of 0.5 mg/mL. Aliquots (30 mL) of the final membrane preparation were then centrifuged at 48,000×g for 30 m, and the resulting pellets were stored at −80° C. until required.
(§3) 35S-TBPS binding assay. Membrane pellets containing either GABAA α1β2γ2 or GABAA α2β3γ2 constructs were thawed on ice, resuspended in 10 mL of 50 mM Tris HCl pH7.4, 4° C. and 150 mM KCl and centrifuged at 48,000×g, 30 m at 4° C. After discarding the supernatant, the pellet was resuspended in 30 mL incubation buffer (50 mM Tris HCl pH 7.4, 25° C. and 150 mM KCl) at approximately 0.5 mg/mL protein concentration. In 35S-TBPS competition studies, HEK293 membranes were incubated with 35S-TBPS (5 nM final) and GABA (1 μM) in the absence or presence of competitor at concentrations ranging from 0.01 nM to 10 μM in 125 μL incubation buffer for 2 hours at room temperature (˜22° C.). Non-specific binding was assayed with picrotoxin (100 μM final concentration). The binding reaction was terminated by vacuum filtration through GF/B filters previously soaked in 0.1% polyethylenimine followed by 3×1 mL washes with ice cold wash buffer (50 mM Tris HCl pH7.4, 4° C. and 150 mM KCl). Measurement of bound radioactivity was performed using a Packard Microplate 96 well topcount scintillation counter. Analysis of competition curves and estimation of pIC50 values of test compounds were performed using the software programs ActivityBase and/or Prism (version 3.0).

GABAA α2β3γ2 = molecular target: T2, GABAA α2β3γ2 (Homo sapiens, UniProt P18507+P28472+P47869); test: 35S-TBPS binding assay, HEK293 membranes with GABAA α2β3γ2 construct; details: 35S-TBPS 5 nM, GABA 1 μM, 2 hours at room temperature, read-out: α2β3γ2 (35S-TBPS binding, pIC50) (converted)
T2 construct: expressed in transfected cells; host or cells: HEK293
T2 sequence (P47869 29-451): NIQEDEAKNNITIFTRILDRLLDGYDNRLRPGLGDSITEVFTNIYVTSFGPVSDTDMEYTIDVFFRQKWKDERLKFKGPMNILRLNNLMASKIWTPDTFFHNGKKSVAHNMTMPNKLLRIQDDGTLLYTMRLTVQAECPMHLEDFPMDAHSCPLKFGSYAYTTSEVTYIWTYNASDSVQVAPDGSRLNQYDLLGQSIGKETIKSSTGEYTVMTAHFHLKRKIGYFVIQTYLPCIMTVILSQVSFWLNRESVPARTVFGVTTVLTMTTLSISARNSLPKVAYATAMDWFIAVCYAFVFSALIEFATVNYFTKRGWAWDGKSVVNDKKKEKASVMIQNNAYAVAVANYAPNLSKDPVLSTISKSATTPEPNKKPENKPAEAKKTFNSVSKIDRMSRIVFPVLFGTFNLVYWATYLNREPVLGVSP
T2 sequence (P28472 26-473): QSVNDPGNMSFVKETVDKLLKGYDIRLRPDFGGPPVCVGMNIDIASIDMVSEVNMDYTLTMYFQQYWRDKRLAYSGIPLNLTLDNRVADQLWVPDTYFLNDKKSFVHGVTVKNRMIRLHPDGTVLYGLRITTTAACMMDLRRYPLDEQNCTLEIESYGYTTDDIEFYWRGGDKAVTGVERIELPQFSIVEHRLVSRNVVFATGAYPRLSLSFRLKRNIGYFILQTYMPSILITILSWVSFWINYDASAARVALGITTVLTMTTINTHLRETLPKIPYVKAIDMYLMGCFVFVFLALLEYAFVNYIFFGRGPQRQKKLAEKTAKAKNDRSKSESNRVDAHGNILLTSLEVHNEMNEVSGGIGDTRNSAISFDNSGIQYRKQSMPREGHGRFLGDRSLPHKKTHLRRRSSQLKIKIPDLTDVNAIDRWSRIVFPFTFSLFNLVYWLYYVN
T2 sequence (P18507 40-475): as the sequence (P18507 40-475) above
Description: as §1, §2, §3

| Compound | IC50 (GABAA α1β2γ2) [µM] | IC50 (GABAA α2β3γ2) [µM] | melting point [°C] |
| --- | --- | --- | --- |
| Cn1nc2c(-c3ccc(Cl)cc3Cl)cccc2c1-c1nnco1 [I-39, 7-(2,4-Dichloro-phenyl)-2-meth-yl-3-[1,3,4]oxadiazol-2-yl-2H-inda-zole] | > 10 | 2.82 | 199 to 201.2 |
| Cn1nnnc1Cc1c2cccc(-c3ccc(Cl)cc3Cl)c2nn1C [I-20, 7-(2,4-Dichloro-phenyl)-2-meth-yl-3-(1-methyl-1H-tetra-zol-5-ylmethyl)-2H-inda-zole] |  | 1.7 | 183.9 to 185.4 |
| Cn1nc2c(-c3ccc(Cl)cc3Cl)cccc2c1Cc1nnn(CS(C)(=O)=O)n1 [I-12, 7-(2,4-Dichloro-phenyl)-3-(2-meth-anesulfonylmethyl-2H-tetra-zol-5-ylmethyl)-2-meth-yl-2H-indazole] | 1.15 | 0.269 | 156.6 to 157.8 |
| Cn1nc2c(-c3ccc(Cl)cc3Cl)cccc2c1-n1cnnc1 [I-23, 7-(2,4-Dichloro-phenyl)-2-meth-yl-3-[1,2,4]triazol-4-yl-2H-inda-zole] | > 10 | 4.07 | 117.9 to 121.3 |
| Cn1nc2c(-c3ccc(Cl)cc3Cl)cccc2c1-n1ccnc1 [I-22, 7-(2,4-Dichloro-phenyl)-3-imi-dazol-1-yl-2-methyl-2H-inda-zole] | 3.16 | 0.355 | 63.2 to 89.4 |
| Cn1nc2c(-c3ccc(Cl)cc3Cl)cccc2c1Cc1nnnn1CCO [I-10, 2-{5-[7-(2,4-Dichloro-phenyl)-2-methyl-2H-inda-zol-3-ylmethyl]-tetrazol-1-yl}-eth-anol] | > 10 | 0.398 | 66.1 to 87.2 |
| Cn1nc2c(-c3ccc(Cl)cc3Cl)cccc2c1Cc1nc[nH]n1 [I-31, 7-(2,4-Dichloro-phenyl)-2-meth-yl-3-(1H-[1,2,4]triazol-3-yl-methyl)-2H-indazole] | 4.17 | 0.355 | 206.3 to 207 |
| Cn1nc2c(-c3ccc(Cl)cc3Cl)cccc2c1C(=O)c1nnn[nH]1 [I-18, [7-(2,4-Dichloro-phenyl)-2-meth-yl-2H-indazol-3-yl]-(1H-tetra-zol-5-yl)-methanone] | 0.933 | 0.11 | 209.8 to 210.3 |
| Cn1nnc(Cc2c3cccc(-c4ccc(Cl)cc4Cl)c3nn2C)n1 [I-33, 7-(2,4-Dichloro-phenyl)-2-meth-yl-3-(2-methyl-2H-tetra-zol-5-ylmethyl)-2H-inda-zole] | 1.48 | 0.102 | 158.8 to 160.5 |
| Cn1nc2c(-c3ccc(Cl)cc3Cl)cccc2c1C(=O)c1ncn[nH]1 [I-15, [7-(2,4-Dichloro-phenyl)-2-meth-yl-2H-indazol-3-yl]-(2H-[1,2,4]tri-azol-3-yl)-meth-anone] | > 10 | 0.331 | 283.9 to 284.9 |
| Cn1nnnc1C(O)c1c2cccc(-c3ccc(Cl)cc3Cl)c2nn1C (centres unmarked) [I-32, [7-(2,4-Dichloro-phenyl)-2-meth-yl-2H-indazol-3-yl]-(meth-yl-1H-tetrazol-5-yl)-meth-anol] | 5.89 | 0.398 |  |
| Cn1nc2c(-c3ccc(Cl)cc3Cl)cccc2c1-c1ncc[nH]1 [I-45, 7-(2,4-Dichloro-phenyl)-3-(1H-imi-dazol-2-yl)-2-meth-yl-2H-indazole] | 5.62 | 0.537 |  |
| CCOC(c1cnc[nH]1)c1c2cccc(-c3ccc(Cl)cc3Cl)c2nn1C (centres unmarked) [I-26, 7-(2,4-Dichloro-phenyl)-3-[eth-oxy-(3H-imidazol-4-yl)-meth-yl]-2-methyl-2H-inda-zole] | 6.17 | 0.513 |  |
| Cn1nc2c(-c3ccc(Cl)cc3Cl)cccc2c1C(=O)c1nccn1CCO [I-24, [7-(2,4-Dichloro-phenyl)-2-meth-yl-2H-indazol-3-yl]-[1-(2-hydroxy-ethyl)-1H-imi-dazol-2-yl]-methanone] | 3.72 | 0.214 |  |
| Cn1nc2c(-c3ccc(Cl)cc3Cl)cccc2c1-c1cnc[nH]1 [I-36, 7-(2,4-Dichloro-phenyl)-3-(3H-imi-dazol-4-yl)-2-meth-yl-2H-indazolehydrochloride] | 7.24 | 0.145 |  |
| CCOC(=O)c1nccn1Cc1c2cccc(-c3ccc(Cl)cc3Cl)c2nn1C [I-14, 1-[7-(2,4-Dichloro-phenyl)-2-meth-yl-2H-indazol-3-yl-methyl]-1H-imidazole-2-carboxy-lic acid ethyl ester] | 4.79 | 0.832 |  |
| Cn1nc2c(-c3ccc(Cl)cc3Cl)cccc2c1CC1=NCCN1 [I-29, 7-(2,4-Dichloro-phenyl)-3-(4,5-di-hydro-1H-imidazol-2-yl-methyl)-2-methyl-2H-inda-zole] | > 10 | > 10 |  |
| Cn1nc2c(-c3ccc(Cl)cc3Cl)cccc2c1Cn1ccnc1 [I-40, 7-(2,4-Dichloro-phenyl)-3-imi-dazol-1-ylmethyl-2-meth-yl-2H-indazole] | 4.07 | 1.15 |  |
| Cn1nc2c(-c3ccc(Cl)cc3Cl)cccc2c1Cn1cccn1 [I-37, 7-(2,4-Dichloro-phenyl)-2-meth-yl-3-pyrazol-1-yl-methyl-2H-indazole] | 2.75 | 0.38 |  |

Continued, values first:

| IC50 (GABAA α1β2γ2) [µM] | IC50 (GABAA α2β3γ2) [µM] | melting point [°C] | Compound |
| --- | --- | --- | --- |
| > 10 | 0.676 | 178 to 178.5 | Cc1noc(-c2c3cccc(-c4ccc(Cl)cc4Cl)c3nn2C)n1 [I-50, 7-(2,4-Dichloro-phenyl)-2-meth-yl-3-(3-methyl-[1,2,4]oxa-diazol-5-yl)-2H-inda-zole] |
| 0.479 | 0.603 | 209.4 to 210.3 | Cn1nc2c(-c3ccc(Cl)cc3Cl)cccc2c1CCc1nnn[nH]1 [I-46, 7-(2,4-Dichloro-phenyl)-2-meth-yl-3-[2-(1H-tetrazol-5-yl)-eth-yl]-2H-indazole] |
| 3.02 | 0.166 | 167.5 to 169.5 | Cn1nc2c(-c3ccc(Cl)cc3Cl)cccc2c1-c1cnco1 [I-51, 7-(2,4-Dichloro-phenyl)-2-meth-yl-3-oxazol-5-yl-2H-inda-zole] |
|  |  | 80.8 to 84 | CCOC(=O)Cc1ncn(Cc2c3cccc(-c4ccc(Cl)cc4Cl)c3nn2C)n1 [I-58, {1-[7-(2,4-Dichloro-phenyl)-2-meth-yl-2H-indazol-3-yl-methyl]-1H-[1,2,4]triazol-3-yl}-aceticacid ethyl ester] |
|  |  | 167.9 to 168.9 | CCOC(=O)Cc1ncnn1Cc1c2cccc(-c3ccc(Cl)cc3Cl)c2nn1C [I-59, {2-[7-(2,4-Dichloro-phenyl)-2-meth-yl-2H-indazol-3-yl-methyl]-2H-[1,2,4]triazol-3-yl}-aceticacid ethyl ester] |
| 2.24 | 0.234 | 270.1 to 275.5 | Cn1nc2c(-c3ccc(Cl)cc3Cl)cccc2c1Cc1nnn[nH]1 [I-53, 7-(2,4-Dichloro-phenyl)-2-meth-yl-3-(1H-tetrazol-5-yl-methyl)-2H-indazole] |
| > 10 | 0.468 | 162.2 to 167.1 | Cn1nc2c(-c3ccc(Cl)cc3Cl)cccc2c1C1=NCCO1 [I-48, 7-(2,4-Dichloro-phenyl)-3-(4,5-di-hydro-oxazol-2-yl)-2-meth-yl-2H-indazole] |
| 1.2 | 0.151 | 256.8 to 258.1 | Cn1nc2c(-c3ccc(Cl)cc3Cl)cccc2c1/C=C/c1nnn[nH]1 [I-47, 7-(2,4-Dichloro-phenyl)-2-meth-yl-3-[(E)-2-(1H-tetra-zol-5-yl)-vinyl]-2H-inda-zole] |
| 3.63 | 0.141 |  | Cn1nnc(-c2c3cccc(-c4ccc(Cl)cc4Cl)c3nn2C)n1 [I-52, 7-(2,4-Dichloro-phenyl)-2-meth-yl-3-(2-methyl-2H-tetra-zol-5-yl)-2H-indazole] |
| 5.01 | 0.603 |  | Cn1nc2c(-c3ccc(Cl)cc3Cl)cccc2c1Cn1cncn1 [I-42, 7-(2,4-Dichloro-phenyl)-2-meth-yl-3-[1,2,4]triazol-1-yl-methyl-2H-indazole] |
